The subject of the test is Human WB (90%) CD69. The test can be described thus: Human WB (90%) CD69. As to conditions: read-out: Human WB (90%) CD69 IC50 (nM); human whole blood (90%), CD69 readout. In kind it is cell-based.

Structures can show the parent of a compound that is named as a salt.

Consider 28 compounds from patent US20260224584A1 (priority 2023, published 2026).

As to `CC(C)N1CCN(c2ccc(-c3cc(NCCN4CCOCC4)c4nc(C5CC5)n(C)c4c3)cc2)CC1` [Example 31, 2-cyclopropyl-6-(4-(4-isopropylpiperazin-1-yl)phenyl)-1-methyl-N-(2-morpholinoethyl)-1H-benzo[d]imidazol-4-amine, 2 TFA], the IC50 (commonly the concentration that gives 50% inhibition) amounted to 302 nM.

For the compound `CC(C)N1CCN(c2ccc(-c3cc(NCCN4CCOCC4)c4nc(C5CCC5)n(C)c4c3)cc2)CC1` [Example 32, 2-cyclobutyl-6-(4-(4-isopropylpiperazin-1-yl)phenyl)-1-methyl-N-(2-morpholinoethyl)-1H-benzo[d]imidazol-4-amine, 2 TFA], the IC50 is 79 nM.

On to `Cc1cc(C)nc(Nc2cc(-c3ccc(N4CCN(C(C)C)CC4)cc3)cc3c2nc(C2CC2)n3C)c1` [Example 33, 2-cyclopropyl-N-(4,6-dimethylpyridin-2-yl)-6-(4-(4-isopropylpiperazin-1-yl)phenyl)-1-methyl-1H-benzo[d]imidazol-4-amine, TFA], for which the 50% inhibitory concentration (IC50) came to 245 nM.

On to `Cc1cc(C)nc(Nc2cc(-c3ccc(N4CCN(C(C)C)CC4)cc3)cc3c2nc(C2CCC2)n3C)c1` [Example 34, 2-cyclobutyl-N-(4,6-dimethylpyridin-2-yl)-6-(4-(4-isopropylpiperazin-1-yl)phenyl)-1-methyl-1H-benzo[d]imidazol-4-amine, TFA], for which the IC50 was 587 nM.

On to `CC(C)N1CCN(c2ccc(-c3cc(NCCN4CCC(F)(F)CC4)c4nc(-c5ccc(S(C)(=O)=O)cc5)n(C)c4c3)cc2)CC1` [Example 35, N-(2-(4,4-difluoropiperidin-1-yl)ethyl)-6-(4-(4-isopropylpiperazin-1-yl)phenyl)-1-methyl-2-(4-(methylsulfonyl)phenyl)-1H-benzo[d]imidazol-4-amine], for which the IC50 turned out to be 571 nM.

Turning to `CC(C)N1CCN(c2ccc(-c3cc(NCc4ccc(CN5CCOCC5)cc4)c4nc(-c5ccc(S(C)(=O)=O)cc5)n(C)c4c3)cc2)CC1` [Example 36, 6-(4-(4-isopropylpiperazin-1-yl)phenyl)-1-methyl-2-(4-(methylsulfonyl)phenyl)-N-(4-(morpholinomethyl)benzyl)-1H-benzo[d]imidazol-4-amine], the IC50 came out at 221 nM.

In the case of `CC(C)N1CCN(c2ccc(-c3cc(Nc4ccc(N5CCOCC5)nn4)c4nc(-c5ccc(S(C)(=O)=O)cc5)n(C)c4c3)cc2)CC1` [Example 37, 6-(4-(4-isopropylpiperazin-1-yl)phenyl)-1-methyl-2-(4-(methylsulfonyl)phenyl)-N-(6-morpholinopyridazin-3-yl)-1H-benzo[d]imidazol-4-amine, TFA], the IC50 worked out at 167 nM.

For the compound `Cc1cc(C)nc(Nc2cc(-c3ccc(N4CCN(C5CCOCC5)CC4)cc3)cc3c2nc(-c2ccc(S(C)(=O)=O)cc2)n3C)c1` [Example 38, N-(4,6-dimethylpyridin-2-yl)-1-methyl-2-(4-(methylsulfonyl)phenyl)-6-(4-(4-(tetrahydro-2H-pyran-4-yl)piperazin-1-yl)phenyl)-1H-benzo[d]imidazol-4-amine], the IC50 came to 899 nM.

For `CC(C)N1CCN(c2ccc(-c3cc(NCCN4CCOCC4)c4ncn(C)c4c3)cc2)CC1` [Example 39, 6-(4-(4-isopropylpiperazin-1-yl)phenyl)-1-methyl-N-(2-morpholinoethyl)-1H-benzo[d]imidazol-4-amine, 2 TFA], the 50% inhibitory concentration (IC50) stood at 283 nM.

As to `Cc1cc(C)nc(Nc2cc(-c3ccc(N4CCN(C(C)C)CC4)cc3)cc3c2ncn3C)c1` [Example 40, N-(4,6-dimethylpyridin-2-yl)-6-(4-(4-isopropylpiperazin-1-yl)phenyl)-1-methyl-1H-benzo[d]imidazol-4-amine], the IC50 is 565 nM.

For `Cc1cc(C)nc(Nc2cc(-c3ccc(N4CCN(C(C)C)CC4)cc3)cc3c2nc(C2CCS(=O)(=O)CC2)n3C)c1` [Example 41, 4-(4-((4,6-dimethylpyridin-2-yl)amino)-6-(4-(4-isopropylpiperazin-1-yl)phenyl)-1-methyl-1H-benzo[d]imidazol-2-yl)tetrahydro-2H-thiopyran 1,1-dioxide. TFA], the IC50 turned out to be 128 nM.

With `CC(C)N1CCN(c2ccc(-c3cc(NCCN4CCOCC4)c4nc(C5CCS(=O)(=O)CC5)n(C)c4c3)cc2)CC1` [Example 42, 4-(6-(4-(4-isopropylpiperazin-1-yl)phenyl)-1-methyl-4-((2-morpholinoethyl)amino)-1H-benzo[d]imidazol-2-yl)tetrahydro-2H-thiopyran 1,1-dioxide], the IC50 turned out to be 925 nM.

For the compound `CC(C)N1CCN(c2ccc(-c3cc(NCc4ccc(CN5CCOCC5)cc4)c4nc(C5CCS(=O)(=O)CC5)n(C)c4c3)cc2)CC1` [Example 43, 4-(6-(4-(4-isopropylpiperazin-1-yl)phenyl)-1-methyl-4-((4-(morpholinomethyl)benzyl)amino)-1H-benzo[d]imidazol-2-yl)tetrahydro-2H-thiopyran 1,1-dioxide, 2 TFA], the IC50 was found to be 396 nM.

In the case of `Cc1cc(C)nc(Nc2cc(-c3ccc(N4CCN(C(C)C)CC4)cc3)cc3c2nc(C2COC2)n3C)c1` [Example 44, N-(4,6-dimethylpyridin-2-yl)-6-(4-(4-isopropylpiperazin-1-yl)phenyl)-1-methyl-2-(oxetan-3-yl)-1H-benzo[d]imidazol-4-amine], the IC50 stood at 282 nM.

Turning to `CC(C)N1CCN(c2ccc(-c3cc(NCCN4CCOCC4)c4nc(C5COC5)n(C)c4c3)cc2)CC1` [Example 45, 6-(4-(4-isopropylpiperazin-1-yl)phenyl)-1-methyl-N-(2-morpholinoethyl)-2-(oxetan-3-yl)-1H-benzo[d]imidazol-4-amine], the 50% inhibitory concentration (IC50) was 473 nM.

On to `CC(C)N1CCN(c2ccc(-c3cc(NCc4ccc(CN5CCOCC5)cc4)c4nc(C5COC5)n(C)c4c3)cc2)CC1` [Example 46, 6-(4-(4-isopropylpiperazin-1-yl)phenyl)-1-methyl-N-(4-(morpholinomethyl)benzyl)-2-(oxetan-3-yl)-1H-benzo[d]imidazol-4-amine], for which the IC50 was 534 nM.

On to `CC(C)N1CCN(c2ccc(-c3cc(NCCN4CCOCC4)c4nc(C5CCOCC5)n(C)c4c3)cc2)CC1` [Example 47, 6-(4-(4-isopropylpiperazin-1-yl)phenyl)-1-methyl-N-(2-morpholinoethyl)-2-(tetrahydro-2H-pyran-4-yl)-1H-benzo[d]imidazol-4-amine, 2 TFA], for which the IC50 turned out to be 181 nM.

With `Cc1cc(C)nc(Nc2cc(-c3ccc(N4CCN(C(C)C)CC4)cc3)cc3c2nc(C2CCOCC2)n3C)c1` [Example 48, N-(4,6-dimethylpyridin-2-yl)-6-(4-(4-isopropylpiperazin-1-yl)phenyl)-1-methyl-2-(tetrahydro-2H-pyran-4-yl)-1H-benzo[d]imidazol-4-amine, TFA], the IC50 stood at 109 nM.

Take `Cc1cc(C)nc(Nc2cc(-c3ccc(N4CCN(C(C)C)CC4)cc3)cc3c2nc(-c2cnoc2)n3C)c1` [Example 49, N-(4,6-dimethylpyridin-2-yl)-6-(4-(4-isopropylpiperazin-1-yl)phenyl)-2-(isoxazol-4-yl)-1-methyl-1H-benzo[d]imidazol-4-amine, TFA]: the IC50 stood at 1090 nM.

Consider `CC(C)N1CCN(c2ccc(-c3cc(NC4CCN(S(C)(=O)=O)CC4)c4nc(C5CCN(S(C)(=O)=O)CC5)n(C)c4c3)cc2)CC1` [Example 50, 6-(4-(4-isopropylpiperazin-1-yl)phenyl)-1-methyl-N,2-bis(1-(methylsulfonyl)piperidin-4-yl)-1H-benzo[d]imidazol-4-amine], for which the IC50 came out at 1530 nM.

In the case of `Cc1cc(C)nc(Nc2cc(-c3ccc(N4CCN(C(C)C)CC4)cc3)cc3c2nc(-c2cc[nH]c2)n3C)c1` [Example 51, N-(4,6-dimethylpyridin-2-yl)-6-(4-(4-isopropylpiperazin-1-yl)phenyl)-1-methyl-2-(1H-pyrrol-3-yl)-1H-benzo[d]imidazol-4-amine], the IC50 worked out at 61 nM.

With `Cc1cc(C)nc(Nc2cc(-c3ccc(N4CCN(C(C)C)CC4)cc3)cc3c2nc(-c2ccco2)n3C)c1` [Example 52, N-(4,6-dimethylpyridin-2-yl)-2-(furan-2-yl)-6-(4-(4-isopropylpiperazin-1-yl)phenyl)-1-methyl-1H-benzo[d]imidazol-4-amine, TFA], the IC50 worked out at 62 nM.

Take `Cc1cc(C)nc(Nc2cc(-c3ccc(N4CCN(C(C)C)CC4)cc3)cc3c2nc(-c2cc[nH]n2)n3C)c1` [Example 53, N-(4,6-dimethylpyridin-2-yl)-6-(4-(4-isopropylpiperazin-1-yl)phenyl)-1-methyl-2-(1H-pyrazol-3-yl)-1H-benzo[d]imidazol-4-amine, TFA]: the IC50 came out at 75 nM.

Consider `CC(C)N1CCN(c2ccc(-c3cc(NC4CCN(S(C)(=O)=O)CC4)c4nc(N(C)C)n(C)c4c3)cc2)CC1` [Example 54, 6-(4-(4-isopropylpiperazin-1-yl)phenyl)-N2,N2,1-trimethyl-N4-(1-(methylsulfonyl)piperidin-4-yl)-1H-benzo[d]imidazole-2,4-diamine], for which the IC50 was determined as 673 nM.

On to `CC(C)N1CCN(c2ccc(-c3cc(NCc4cccc(S(C)(=O)=O)c4)c4nc(-c5ccc(S(C)(=O)=O)cc5)n(C)c4c3)cc2)CC1` [Example 55, 6-(4-(4-isopropylpiperazin-1-yl)phenyl)-1-methyl-N-(3-(methylsulfonyl)benzyl)-2-(4-(methylsulfonyl)phenyl)-1H-benzo[d]imidazol-4-amine], for which the IC50 stood at 1130 nM.

Regarding `CC(C)N1CCN(c2ccc(-c3cc(NCc4ccc(S(C)(=O)=O)cc4)c4nc(-c5ccc(S(C)(=O)=O)cc5)n(C)c4c3)cc2)CC1` [Example 56, 6-(4-(4-isopropylpiperazin-1-yl)phenyl)-1-methyl-N-(4-(methylsulfonyl)benzyl)-2-(4-(methylsulfonyl)phenyl)-1H-benzo[d]imidazol-4-amine, TFA], the IC50 came to 1640 nM.

In the case of `Cc1nc2c(NC3CCN(C4COC4)CC3)cc(-c3ccc(N4CCN(C(C)C)CC4)cc3)cc2n1C` [Example 57, 6-(4-(4-isopropylpiperazin-1-yl)phenyl)-1,2-dimethyl-N-(1-(oxetan-3-yl)piperidin-4-yl)-1H-benzo[d]imidazol-4-amine], the IC50 came out at 188 nM.

On to `Cc1nc2c(N3CCN(C4COC4)CC3)cc(-c3ccc(N4CCN(C(C)C)CC4)cc3)cc2n1C` [Example 58, 6-(4-(4-isopropylpiperazin-1-yl)phenyl)-1,2-dimethyl-4-(4-(oxetan-3-yl)piperazin-1-yl)-1H-benzo[d]imidazole], for which the IC50 came out at 860 nM.
